According to US20240101548A1, “HYDROXAMATE COMPOUND, PREPARATION METHOD THEREFOR AND APPLICATION THEREOF” (SHENZHEN CHIPSCREEN BIOSCIENCES CO., LTD., priority 2020, published 2024):
Where two headings read alike, the source gives them in different places.

Legend:
Assay type in all cases: cell-based, human
[1] = test system: EPO-induced JAK2 signal pathway; experiment: EPO-induced proliferation of UT-7 cells (JAK2 signal); conditions: UT-7 cell proliferation, EPO 10 ng/mL, 72 hours, read-out: Inhibition activity IC50 on EPO-induced JAK2 signal pathway
Outline: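 UT-7 cells (15000/well) stimulated with 10 ng/mL human recombinant EPO plus compound at final 0, 100, 1000 or 10000 nM, 72 h at 37° C., 5% CO2. Proliferation by alamarBlue fluorescence (Ex530/Em590); inhibition normalised to no-cytokine/no-compound (0) and EPO-only (100) wells, […] derived from dose-inhibition.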

[2] = test system: IL-10-induced JAK1/TYK2 signal pathway; experiment: IL-10-induced JAK1/TYK2 signal pathway STAT3-Luc reporter gene assay in U2OS cells; conditions: U2OS cells, STAT3-Luc reporter, IL-10 10 ng/mL, read-out: Half inhibition dose (IC50) on IL-10-induced JAK1/TYK2 signal pathway
Outline: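 U2OS cells co-transfected with IL-10R1-EGFP and STAT3-luciferase reporter plasmids; after 24 h, compound added (0–300 nM) for 6 h before 10 ng/mL human IL-10, then 24 h culture. Luciferase signal normalised to GFP for transfection efficiency; IC50 from inhibition rates.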

[3] = test system: IL-2-induced JAK1/JAK3 signal pathway; experiment: IL-2-induced proliferation of KHYG-1 cells (JAK1/JAK3 signal); conditions: KHYG-1 cell proliferation, IL-2 10 ng/mL, 72 hours, read-out: Inhibition activity IC50 on IL-2-induced JAK1/JAK3 signal pathway
Outline: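 KHYG-1 NK lymphoma cells were cultured with IL-2 and test compound at various doses for 72 h at 37 °C and 5% CO2, and proliferation was read with alamarBlue fluorescence. Inhibition was normalized to wells without compound or cytokine (0%) and IL-2 wells without compound (100%), and C50 was derived from the dose-inhibition data.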

Row | SMILES | IC50 ([1]; Homo sapiens, UT7) [µM] | IC50 ([2]; Homo sapiens, U2OS) [µM] | IC50 ([3]; Homo sapiens) [µM] | IC50 [1] [µM] | IC50 [2] [µM] | IC50 [3] [µM]
1 | CONC(=O)c1cnc(Nc2cccc(F)n2)cc1Nc1ccc(C)cc1N(C)S(C)(=O)=O [Example 106, 6-((6-fluoropyridin-2-yl)amino)-N-methoxy-4-((4-methyl-2-(N-methylmethanesulfonamido)phenyl)amino)nicotinamide] | > 10 | 0.00181 | > 10 |  |  | 
2 | CCONC(=O)c1cnc(Nc2ccc(OC)cn2)cc1Nc1ccc(C2CC2)cc1N(C)S(C)(=O)=O [Example 20, 4-((4-cyclopropyl-2-(N-methylmethanesulfonamido)phenyl)amino)-N-ethoxy-6-((5-methoxypyridin-2-yl)amino)nicotinamide] | > 10 | 0.000955 | > 10 |  |  | 
3 | CCONC(=O)c1cnc(Nc2cc(C)c(F)cn2)cc1Nc1ccc(C2CC2)cc1N(C)S(C)(=O)=O [Example 125, 4-((4-cyclopropyl-2-(N-methylmethanesulfonamido)phenyl)amino)-N-ethoxy-6-((5-fluoro-4-methylpyridin-2-yl)amino)nicotinamide] | > 10 | 0.000946 | > 10 |  |  | 
4 | CCONC(=O)c1cnc(Nc2cc(C)nc(C)n2)cc1Nc1cc(F)c(C)cc1N(C)S(C)(=O)=O [Example 191, 6-((2,6-dimethylpyrimidin-4-yl)amino)-N-ethoxy-4-((5-fluoro-4-methyl-2-(N-methylmethanesulfonamido)phenyl)amino)nicotinamide] | > 10 | 0.000653 | > 10 |  |  | 
5 | CCONC(=O)c1cnc(Nc2cc(C)nc(C)n2)cc1Nc1ccc(C)c(F)c1N(C)S(C)(=O)=O [Example 197] | > 10 | 0.000731 | > 10 |  |  | 
6 | C#Cc1ccc(Nc2cc(Nc3ccc(OC)cn3)ncc2C(=O)NOCC)c(N(C)S(C)(=O)=O)c1 [Example 141, N-ethoxy-4-((4-ethynyl-2-(N-methylmethanesulfonamido)phenyl)amino)-6-(5-methoxypyridin-2-ylamino)nicotinamide] | > 10 | 0.000489 | > 10 |  |  | 
7 | CCONC(=O)c1cnc(Nc2cccc(F)n2)cc1Nc1ccc(Cl)cc1N(C)S(C)(=O)=O [Example 129, 4-((4-chloro-2-(N-methylmethanesulfonamido)phenyl)amino)-N-ethoxy-6-((6-fluoropyridin-2-yl)amino)nicotinamide] | > 10 | 0.00108 | > 10 |  |  | 
8 | CONC(=O)c1cnc(Nc2ccc(F)cn2)cc1Nc1ccc(Cl)cc1N(C)S(C)(=O)=O [Example 80, 4-((4-chloro-2-(N-methylmethanesulfonamido)phenyl)amino)-6-((5-fluoropyridin-2-yl)amino)-N-methoxy nicotinamide] |  |  |  | > 10 | 0.000961 | > 10
9 | C#Cc1ccc(Nc2cc(Nc3ccc(C4CC4)cn3)ncc2C(=O)NOCC)c(N(C)S(C)(=O)=O)c1 [Example 154, 6-((5-cyclopropylpyridin-2-yl)amino)-N-ethoxy-4-((4-ethynyl-2-(N-methylmethanesulfonamido)phenyl)amino)nicotinamide] | > 10 | 0.00152 | > 10 |  |  | 
10 | CCONC(=O)c1cnc(Nc2cc(C)nc(C)n2)cc1Nc1ccc(Cl)cc1N(C)S(=O)(=O)CC [Example 187, 4-((4-chloro-2-(N-methylethylsulfonamido)phenyl)amino)-6-((2,6-dimethylpyrimidin-4-yl)amino)-N-ethoxynicotinamide] | > 10 | 0.000906 | > 10 |  |  | 
11 | CCONC(=O)c1cnc(Nc2cnc(F)c(C)c2)cc1Nc1ccc(C2CC2)cc1N(C)S(C)(=O)=O [Example 235, 4-((4-cyclopropyl-2-(N-methylmethanesulfonamido)phenyl)amino)-N-ethoxy-6-((6-fluoro-5-methylpyridin-3-yl)amino)nicotinamide] | > 10 | 0.000722 | > 10 |  |  | 
12 | CONC(=O)c1cnc(Nc2ccc(OC)cn2)cc1Nc1ccc(C)cc1N(C)S(C)(=O)=O [Example 108] | > 10 | 0.00187 | > 10 |  |  | 
13 | CN(c1cc(C2CC2)ccc1Nc1cc(Nc2cccc(F)n2)ncc1C(=O)NOCC(F)(F)F)S(C)(=O)=O [Example 119, 4-((4-cyclopropyl-2-(N-methylmethanesulfonamido)phenyl)amino)-6-((6-fluoropyridin-2-yl)amino)-N-(2,2,2-trifluoroethoxy)nicotinamide] | > 10 | 0.00153 | > 10 |  |  | 
14 | CCONC(=O)c1cnc(Nc2cccnn2)cc1Nc1ccc(Cl)cc1N(C)S(C)(=O)=O [Example 151, 4-((4-chloro-2-(N-methylmethanesulfonamido)phenyl)amino)-N-ethoxy-6-(pyridazin-3-ylamino)nicotinamide] | > 10 | 0.00207 | > 10 |  |  | 
15 | CCONC(=O)c1cnc(Nc2cc(C)nc(C)n2)cc1Nc1ccc(N2CCCCC2)cc1N(C)S(C)(=O)=O [Example 132, 6-((2,6-dimethylpyrimidin-4-yl)amino)-N-ethoxy-4-((2-(N-methylmethanesulfonamido)-4-(piperidin-1-yl)phenyl)amino)nicotinamide] | > 10 | 0.000977 | > 10 |  |  | 
16 | CCONC(=O)c1cnc(Nc2ccc(F)cn2)cc1Nc1ccc(C2CC2)cc1N(C)S(C)(=O)=O [Example 95, 4-((4-cyclopropyl-2-(N-methylmethanesulfonamido)phenyl)amino)-N-ethoxy-6-((5-fluoropyridin-2-yl)amino)nicotinamide] | > 10 | 0.00228 | > 10 |  |  | 
17 | CCONC(=O)c1cnc(Nc2ccccn2)cc1Nc1ccc(C2CC2)cc1N(C)S(C)(=O)=O [Example 138, 4-((4-cyclopropyl-2-(N-methylmethanesulfonamido)phenyl)amino)-N-ethoxy-6-(pyridin-2-ylamino)nicotinamide] | > 10 | 0.000601 | > 10 |  |  | 
18 | CCONC(=O)c1cnc(Nc2ccnc(C)n2)cc1Nc1cccc(-c2ncc(F)cn2)c1OC [Example 243, N-ethoxy-4-((3-(5-fluoropyrimidin-2-yl)-2-methoxyphenyl)amino)-6-((2-methylpyrimidin-4-yl)amino)nicotinamide] | > 10 | 0.000507 | > 10 |  |  | 
19 | CCONC(=O)c1cnc(Nc2cc(C)nc(C)n2)cc1Nc1ccc(F)cc1N(C)S(=O)(=O)C1CC1 [Example 183] | > 10 | 0.000796 | > 10 |  |  | 
20 | CONC(=O)c1cnc(Nc2cc(C)c(F)cn2)cc1Nc1ccccc1N(C)S(C)(=O)=O [Example 44, 6-((5-fluoro-4-methylpyridin-2-yl)amino)-N-methoxy-4-((2-(N-methylmethanesulfonamido)phenyl)amino)nicotinamide] | > 10 | 0.00104 | > 10 |  |  | 
21 | CCONC(=O)c1cnc(Nc2ccc(C#N)cn2)cc1Nc1ccc(C2CC2)cc1N(C)S(C)(=O)=O [Example 126, 6-((5-cyanopyridin-2-yl)amino)-4-((4-cyclopropyl-2-(N-methylmethanesulfonamido)phenyl)amino)-N-ethoxy nicotinamide] | > 10 | 0.000702 | > 10 |  |  | 
22 | CCONC(=O)c1cnc(Nc2ncc(C)s2)cc1Nc1ccc(C2CC2)cc1N(C)S(C)(=O)=O [Example 156, 4-((4-cyclopropyl-2-(N-methylmethanesulfonamido)phenyl)amino)-N-ethoxy-6-((5-methylthiazol-2-yl)amino)nicotinamide] | > 10 | 0.001 | > 10 |  |  | 
23 | CCONC(=O)c1cnc(Nc2nc(C)cs2)cc1Nc1ccc(C2CC2)cc1N(C)S(C)(=O)=O [Example 157, 4-((4-cyclopropyl-2-(N-methylmethanesulfonamido)phenyl)amino)-N-ethoxy-6-((4-methylthiazol-2-yl)amino)nicotinamide] | > 10 | 0.00149 | > 10 |  |  | 
24 | CONC(=O)c1cnc(Nc2cccc(F)n2)cc1Nc1ccc(Cl)cc1N(C)S(C)(=O)=O [Example 47, 4-((4-chloro-2-(N-methylmethanesulfonamido)phenyl)amino)-6-((6-fluoropyridin-2-yl)amino)-N-methoxy nicotinamide] | > 10 | 0.00134 | > 10 |  |  | 
25 | CCONC(=O)c1cnc(NC(=O)C2CC2)cc1Nc1ccc(C2CC2)cc1N(C)S(C)(=O)=O [Example 139, 6-(cyclopropylcarboxamido)-4-((4-cyclopropyl-2-(N-methylmethanesulfonamido)phenyl)amino)-N-ethoxy nicotinamide] | > 10 | 0.0014 | > 10 |  |  | 
